US9119808B1, “Treating neurodegenerative diseases with GGA or a derivative thereof” (COYOTE PHARMACEUTICALS, INC., priority 2012, dated 2015)

What was measured:
GGTase I = GGTase I (Homo sapiens, UniProt P53609); test: GGTase I activity detected by fluorescent peptide dansyl-GCVLL; format: biochemical
rat hippocampal neurons = test: Rat neuroprotection model, kainic acid induced excitotoxic neuron loss in hippocampus (Assay 3); format: in vivo; conditions: for Rat Neuroprotection, % Protection: kainic acid rat model, 2 or 20 mg/kg
Experimental: Excitotoxicity has been considered as one of the major causes for neuron loss in ALS. A probable cause for excitotoxic neuron death is excess glutamate around the synapses, due to impaired glutamate reuptake capabilities. Intra-cerebral infusion of kainic acid is a well-established and robust model for excitotoxic neuron death that has been used to investigate excitotoxicity for over fifty years. Compounds are tested, e.g., at two concentrations and compare to a vehicle control in a model that quantifies neuron loss in the CA3 area of the hippocampus. Such tests can evaluate blood brain barrier penetration and select compounds that provide neuroprotection from excitotoxic damage.
(§1) The overall strategy, therefore, is to use a sequence of assays, each of which is targeted to address a specific aspect of the disease with the goal of identifying candidates having multiple therapeutic capabilities. These assays are chosen such that a failure to perform at any stage is expected to be fatal to the candidate's suitability as a viable ALS treatment. To this end, the following four therapeutic capabilities and corresponding assays were chosen as shown in the list below. The advancement criteria, as well as assay design where relevant, are also presented. • 1. In some embodiments, the candidates increase HSP70 expression in target cells. The initial screen (pass/fail, Assay 1a) and quantitative evaluation (EC50, Assay 1b) of candidates will use a HSP70 expression assay by Western blot on cellular extracts of treated Neuro2A cells. The screen, Assay 1a, is conducted at a single concentration, requiring a specific level of activity to pass into Assay 1b, the quantitative dose/response determination of the EC50. Only those candidates having an ECK, below 10 nM would be promoted to Assay 2. • 2. In some embodiments, the candidates increase neuronal cell health/growth in the presence of specific inhibitors of GGTase I. The ability of candidates to promote neurite extension will be measured on Neuro2A cells to model whole-cell activities important to synaptic connections and neuronal function. Candidates showing >200 cells with outgrowth would be promoted to Assay 3. • 3. In some embodiments, the candidates provide protection to nerve tissue from excitotoxins. Neuroprotection afforded by candidates that have passed the first two assays will be determined on rat hippocampal neurons facing kainic acid induced damage. This is the final animal model before the ALS disease model and candidates that provide >50% protection would be tested in the disease model. • 4. In some embodiments, the candidates increase median survival time by 25% and improve neurological performance compared to control. This confirmation will be determined in the SOD1 mouse model.

SOD1 mouse model of ALS = test: SOD1 mouse model of ALS: survival and cat-walk gait (Assay 4); format: in vivo; conditions: for Run Duration, CNS-102-vehicle difference of averages / Stride Length, CNS-102-vehicle difference of averages / Swing Speed, CNS-102-vehicle difference of averages: cat-walk
Experimental: Analyses were conducted using PROC LIFEREG in SAS.
Additionally, three neurological function outcomes were chosen for analysis from those measured on a ‘cat-walk’ at irregular intervals over the duration of the study; stride length (cm), run duration (s), and swing speed (cm/s).
This non-random censoring of the treatment group data precluded using standard comparative statistical methods such as the t-test due the unverifiable compliance of the remaining data with required statistical test assumptions. Consequently, a Monte Carlo estimate of the p-value of the treatment differences was constructed using the bootstrap method.
Survival studies and behavioral tests will be performed in the SOD1 G93A model of ALS. This transgenic mouse harbors a point mutation (G93A), found in familial ALS, in the gene encoding for superoxide dismutase 1 (SOD1). This very well characterized mouse model is widely used in ALS research. […] Motor neuron death in the ventral horn of the spinal cord and loss of myelinated axons in the ventral motor roots lead to paralysis and muscle wasting. Mice initially develop normally and gain weight until approximately 100 days of age. At this point, weight loss (which is usually defined as the onset of disease), muscle weakness, and gradual paralysis start at the hind limbs and muscle wasting start to appear. […] This means that drug efficacy studies using this model can be performed within a relatively short time frame of 4-5 months. To rigorously test the efficacy of candidates in this mouse model, neurological scores are monitored, and motor scores, life span, body weight and mice tested in a battery of behavioral paradigms suitable for motor assessment.

[1] = test system: HSP70 expression in Neuro2A cells; test: HSP70 expression by Western blot in treated Neuro2A cells (Assay 1a/1b); format: cell-based, murine; conditions: for HSP70 Expression, HSP70 by Western Blot: Neuro2A cells, Assay 1a screen at 1 μM
Experimental: HSP70 expression in neuro2A cells treated with CNS-102 analogs are examined, using Western blot analysis. An increased expression of HSP70 will indicate the candidate molecule has the prerequisite activity. This assay has a Z factor of […] and a CV of 11% for CNS-102 at 1 nM to 100 nM.
A preliminary screen and quantitative performance evaluation, and a confirmatory neuroprotective assay are developed from a model of motor neuron dysfunction in a PNS cell line.
as §1, with “Candidates showing >200 cells with outgrowth would be promoted to Assay 3. • 3. In some embodiments, the candidates provide protection to nerve tissue from excitotoxins.” left out, “This is the final animal model before the ALS disease model and candidates that provide >50% protection would be tested in the disease model. • 4. In some embodiments, the candidates increase median survival time by 25% and improve neurological performance compared to control.” left out

[2] = Bioavailability and brain penetration; conditions: in vivo
[3] = test system: neuro2A neuroblastoma cell lines; test: Neurite outgrowth in Neuro2A cells challenged with GGTase I inhibitor GGTI-298 (Assay 2); format: cell-based, murine; conditions: @ 10 nM, GGTI-298 challenge
Experimental: Neurite outgrowth in neuro2A neuroblastoma cell lines has been widely used as a cellular model for compounds screening in the CNS drug discovery and research. IN some embodiments, the effects of CNS-102 analogs on neurite outgrowth is determined. Cells will be pre-treated with candidates and then subjected to a challenge with GGTase I inhibitor GGTI-298. Retinoic Acid will be added to start the differentiation of these cells. This will identify analogs that protect neurite outgrowth, which is known to be important for establishing synaptic connections and neuronal functions. This assay has a Z factor of 0.4 and a CV of 11% for CNS-102 at 10 nM to 1 μM.
as §1

Water solubility = format: physicochemical
Source text: The chemical structure of CNS-102 is shown. We have characterized CNS-102 (MW 330) by ^1H NMR, LC, and ESI mass spectrometry and no evidence of cis isomer was found. […] Such can enable CNS-102 to cross the blood brain barrier.

SOD1 G93A = conditions: pre-symptomatic administration or treatment at disease onset; cited from earlier work
cultured spinal neurons = conditions: low concentration (1 nM-100 nM); cited from earlier work

## CC(=O)CC/C=C(\C)CC/C=C(\C)CC/C=C(\C)CCC=C(C)C [CNS-102, 5E,9E,13E-geranylgeranylacetone]
GGTase I
  GGTase I activity: modulates GGTase I activity
Rat hippocampal neurons; hippocampus, locally injected kainic acid, following a single oral dose
  time of peak protection: 72 h
Rat hippocampal neurons
  Rat Neuroprotection, % Protection: 40%
Rat hippocampal neurons; rat kainic acid induced neurotoxicity model, HSP70 in hippocampus and cerebral cortex, HSP60, HSP70, HSP90 upregulated
  expression of HSPs: increases expression of HSPs
SOD1 mouse model of ALS; SOD1 mouse model
  SOD1 Mouse Model, Survival and clinical scores: increase in survival: 9% increase
SOD1 mouse model of ALS; SOD1 mouse model, daily treatments, N=16/treatment
  Increase over vehicle (median survival time): 9%
SOD1 mouse model of ALS; SOD1 mouse model, difference between drug groups not statistically significant at p=0.05
  improvement in median survival, CNS-102 outperformed riluzole by: 50%
SOD1 mouse model of ALS; age P120 ± 1
  Run Duration, CNS-102-vehicle difference of averages: -1.68 s
  Stride Length, CNS-102-vehicle difference of averages: 1.46 cm
  Swing Speed, CNS-102-vehicle difference of averages: 14.58 cm/s
SOD1 mouse model of ALS; age P124 ± 3
  Run Duration, CNS-102-vehicle difference of averages: -1.49 s
  Stride Length, CNS-102-vehicle difference of averages: 1.87 cm
  Swing Speed, CNS-102-vehicle difference of averages: 11.70 cm/s
[1]; murine Neuro2A cells, HSP70 and HSP90 found
  expression of HSPs: increases expression of HSPs
[2]
  bioavailability and brain penetration: excellent
[3]
  Neurite Outgrowth, Cell count relative to negative control: 2.00
Water solubility
  intrinsic water solubility: little intrinsic water solubility

## CC/C(=C\CCC(=O)C12CC3CC(CC(C3)C1)C2)CC/C=C(\C)CC/C=C(\C)CCC=C(C)C [CNS-G001]
Rat hippocampal neurons
  Rat Neuroprotection, % Protection: 37%
[1]
  HSP70 Expression, HSP70 by Western Blot: 2.00 × PBS
[3]
  Neurite Outgrowth, Cell count relative to negative control: 1.79

## CCCCCNC(=O)OC(C)CC/C=C(\C)CC/C=C(\C)CCC=C(C)C (stereo not drawn) [CNS-G002]
[3]
  Neurite Outgrowth, Cell count relative to negative control: 1.79

## CC(=O)CC/C=C(\C)CC/C=C(\C)CC/C=C(\C)CC/C=C(\C)CCC=C(C)C [CNS-G003]
Rat hippocampal neurons
  Rat Neuroprotection, % Protection: 82%
[3]
  Neurite Outgrowth, Cell count relative to negative control: 2.74

## CC(C)=CCC/C(C)=C/CC/C(C)=C/CC/C(C)=C/COC(=O)C1CCCCC1 [CNS-G004]
Rat hippocampal neurons
  Rat Neuroprotection, % Protection: 76%
[3]
  Neurite Outgrowth, Cell count relative to negative control: 2.61

## CC(C)=CCC/C(C)=C/CC/C(C)=C/CC/C(C)=C/CC1CCCCC1=O (stereo not drawn) [CNS-G005]
Rat hippocampal neurons
  Rat Neuroprotection, % Protection: 83%
[1]
  HSP70 Expression, HSP70 by Western Blot: 2.78 × PBS
[3]
  Neurite Outgrowth, Cell count relative to negative control: 2.28

## [O-][n+]1cccc(/C(Cl)=N/OC[C@H](O)CN2CCCCC2)c1 [arimoclomol]
SOD1 G93A
  extension of life span: approximately 5 weeks

## geranylgeranyl acetone [GGA]
Cultured spinal neurons
  proteasome inhibitor induced neurotoxicity: reduce proteasome inhibitor induced neurotoxicity
